Counter-ions that a name gives are not always drawn. Calls of active or inactive are those of the source. Cut-off read from the data, not from the text of the source, for most assays here: actives have a measured Kd and inactives only a lower limit.
Key:
[1] = molecular target: Mitogen-activated protein kinase kinase kinase 1 (Homo sapiens, UniProt Q13233)
[2] = molecular target: Cyclin-dependent kinase 1 (Homo sapiens, UniProt P06493)
[3] = molecular target: STE20-like serine/threonine-protein kinase (Homo sapiens, UniProt Q9H2G2)
[4] = molecular target: MAP kinase-activated protein kinase 2 (Homo sapiens, UniProt P49137)
[5] = molecular target: T1, Dual specificity mitogen-activated protein kinase kinase 6 (Homo sapiens, UniProt P52564)
T1 sequence (P52564 whole entry): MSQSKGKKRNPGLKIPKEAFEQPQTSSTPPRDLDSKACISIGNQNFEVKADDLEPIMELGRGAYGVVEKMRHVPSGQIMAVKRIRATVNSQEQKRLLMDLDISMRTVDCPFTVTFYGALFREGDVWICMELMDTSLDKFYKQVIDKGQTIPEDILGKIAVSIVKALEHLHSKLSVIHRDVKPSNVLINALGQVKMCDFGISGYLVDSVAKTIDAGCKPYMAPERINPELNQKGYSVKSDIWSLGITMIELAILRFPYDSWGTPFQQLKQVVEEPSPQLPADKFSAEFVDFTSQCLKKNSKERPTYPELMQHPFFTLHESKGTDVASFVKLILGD

[6] = molecular target: T2, Dynamin-like GTPase OPA1, mitochondrial (Homo sapiens, UniProt O60313)
T2 sequence (O60313 whole entry): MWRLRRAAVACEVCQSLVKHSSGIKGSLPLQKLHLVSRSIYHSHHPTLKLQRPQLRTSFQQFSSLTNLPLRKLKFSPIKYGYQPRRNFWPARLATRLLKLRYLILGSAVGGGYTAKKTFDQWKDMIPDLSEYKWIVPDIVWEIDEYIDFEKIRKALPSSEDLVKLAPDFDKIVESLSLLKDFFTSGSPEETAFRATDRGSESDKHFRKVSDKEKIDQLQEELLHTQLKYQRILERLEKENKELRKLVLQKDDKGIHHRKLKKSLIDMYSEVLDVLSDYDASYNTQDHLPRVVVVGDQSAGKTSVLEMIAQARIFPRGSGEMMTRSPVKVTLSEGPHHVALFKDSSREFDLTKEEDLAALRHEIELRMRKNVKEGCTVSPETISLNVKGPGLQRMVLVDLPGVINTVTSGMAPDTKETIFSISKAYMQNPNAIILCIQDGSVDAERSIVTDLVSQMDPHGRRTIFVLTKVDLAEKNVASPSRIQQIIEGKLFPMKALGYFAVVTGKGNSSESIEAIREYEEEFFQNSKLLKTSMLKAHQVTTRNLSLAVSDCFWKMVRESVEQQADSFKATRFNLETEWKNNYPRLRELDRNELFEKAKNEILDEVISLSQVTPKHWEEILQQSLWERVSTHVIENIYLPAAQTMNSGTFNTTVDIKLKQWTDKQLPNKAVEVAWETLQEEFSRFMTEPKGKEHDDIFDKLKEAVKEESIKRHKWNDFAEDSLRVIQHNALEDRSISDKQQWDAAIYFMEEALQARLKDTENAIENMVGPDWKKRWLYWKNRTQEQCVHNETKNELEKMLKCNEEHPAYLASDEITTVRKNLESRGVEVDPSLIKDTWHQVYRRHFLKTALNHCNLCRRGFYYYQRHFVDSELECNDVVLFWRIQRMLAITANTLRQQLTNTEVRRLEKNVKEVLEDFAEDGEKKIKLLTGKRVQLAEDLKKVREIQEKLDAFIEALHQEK

[7] = molecular target: Maternal embryonic leucine zipper kinase (Homo sapiens, UniProt Q14680)
[8] = molecular target: Serine/threonine-protein kinase SIK2 (Homo sapiens, UniProt Q9H0K1)
Ephrin type-B receptor 2 = molecular target: T3, Ephrin type-B receptor 2 (Homo sapiens, UniProt P29323)
T3 sequence (P29323 whole entry): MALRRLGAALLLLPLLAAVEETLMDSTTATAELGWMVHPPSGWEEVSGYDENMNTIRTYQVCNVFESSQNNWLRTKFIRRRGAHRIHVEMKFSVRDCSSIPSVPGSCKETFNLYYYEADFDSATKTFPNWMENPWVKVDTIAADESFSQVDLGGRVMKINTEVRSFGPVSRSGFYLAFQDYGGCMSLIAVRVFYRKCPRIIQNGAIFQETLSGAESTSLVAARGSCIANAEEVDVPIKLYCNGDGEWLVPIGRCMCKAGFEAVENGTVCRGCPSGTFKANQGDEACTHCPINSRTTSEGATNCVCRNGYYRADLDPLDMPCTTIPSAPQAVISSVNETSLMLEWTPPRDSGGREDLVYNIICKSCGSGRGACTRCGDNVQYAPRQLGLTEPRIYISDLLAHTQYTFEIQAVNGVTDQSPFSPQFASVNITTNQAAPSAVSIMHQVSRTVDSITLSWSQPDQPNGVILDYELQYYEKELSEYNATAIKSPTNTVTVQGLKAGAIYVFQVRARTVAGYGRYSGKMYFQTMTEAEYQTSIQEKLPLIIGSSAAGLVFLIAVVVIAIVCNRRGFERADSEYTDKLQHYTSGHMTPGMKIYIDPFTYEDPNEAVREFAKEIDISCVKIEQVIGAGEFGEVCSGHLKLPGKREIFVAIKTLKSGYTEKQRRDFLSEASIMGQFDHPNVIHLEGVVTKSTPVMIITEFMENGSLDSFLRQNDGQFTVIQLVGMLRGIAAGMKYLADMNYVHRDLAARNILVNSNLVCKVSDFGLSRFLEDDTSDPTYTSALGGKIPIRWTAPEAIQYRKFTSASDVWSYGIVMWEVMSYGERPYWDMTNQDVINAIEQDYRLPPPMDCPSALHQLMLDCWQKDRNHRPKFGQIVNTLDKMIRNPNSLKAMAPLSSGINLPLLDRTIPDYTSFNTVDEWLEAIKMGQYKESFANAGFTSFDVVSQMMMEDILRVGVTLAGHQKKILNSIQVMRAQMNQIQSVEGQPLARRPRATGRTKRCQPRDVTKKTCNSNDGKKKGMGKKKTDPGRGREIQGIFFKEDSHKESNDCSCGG

[9] = molecular target: Serine/threonine-protein kinase N1 (Homo sapiens, UniProt Q16512)
Note: in the data inactive means no Kd found up to 30 µM.

Chain of Cyclin-dependent kinase 1 (P06493 whole entry): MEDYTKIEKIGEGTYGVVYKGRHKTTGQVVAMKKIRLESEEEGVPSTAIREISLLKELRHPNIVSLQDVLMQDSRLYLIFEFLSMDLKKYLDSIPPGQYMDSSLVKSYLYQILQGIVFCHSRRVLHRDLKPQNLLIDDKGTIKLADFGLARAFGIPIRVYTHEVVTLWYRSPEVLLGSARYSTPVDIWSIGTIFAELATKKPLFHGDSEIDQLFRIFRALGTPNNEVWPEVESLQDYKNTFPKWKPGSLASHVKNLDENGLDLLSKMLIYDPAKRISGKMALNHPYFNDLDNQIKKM
Chain of Serine/threonine-protein kinase SIK2 (Q9H0K1 whole entry): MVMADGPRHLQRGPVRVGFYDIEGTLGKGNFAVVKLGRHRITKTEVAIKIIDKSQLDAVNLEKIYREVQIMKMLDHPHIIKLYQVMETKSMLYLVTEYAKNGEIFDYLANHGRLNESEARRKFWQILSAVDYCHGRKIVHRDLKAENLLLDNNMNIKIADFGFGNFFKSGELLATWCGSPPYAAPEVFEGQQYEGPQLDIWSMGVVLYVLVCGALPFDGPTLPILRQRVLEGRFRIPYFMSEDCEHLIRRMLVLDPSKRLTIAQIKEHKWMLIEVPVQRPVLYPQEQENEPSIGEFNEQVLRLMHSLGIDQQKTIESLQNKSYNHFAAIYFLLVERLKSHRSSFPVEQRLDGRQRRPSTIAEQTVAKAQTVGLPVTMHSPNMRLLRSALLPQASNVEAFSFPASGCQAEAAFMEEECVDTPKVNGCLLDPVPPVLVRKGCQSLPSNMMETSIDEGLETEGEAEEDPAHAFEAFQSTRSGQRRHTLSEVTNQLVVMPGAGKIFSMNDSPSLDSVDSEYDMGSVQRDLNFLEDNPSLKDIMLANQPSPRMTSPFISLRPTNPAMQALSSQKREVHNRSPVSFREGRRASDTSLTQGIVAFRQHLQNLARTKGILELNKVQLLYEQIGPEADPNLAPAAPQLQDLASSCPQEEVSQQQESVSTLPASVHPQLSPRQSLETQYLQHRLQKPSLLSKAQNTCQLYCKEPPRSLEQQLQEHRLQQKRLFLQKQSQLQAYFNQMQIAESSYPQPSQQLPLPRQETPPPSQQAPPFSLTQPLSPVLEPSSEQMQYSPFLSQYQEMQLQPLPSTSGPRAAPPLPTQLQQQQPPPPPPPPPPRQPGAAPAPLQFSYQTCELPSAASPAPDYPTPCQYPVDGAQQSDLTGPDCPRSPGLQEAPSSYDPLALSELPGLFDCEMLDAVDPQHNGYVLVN
Chain of Serine/threonine-protein kinase N1 (Q16512 whole entry): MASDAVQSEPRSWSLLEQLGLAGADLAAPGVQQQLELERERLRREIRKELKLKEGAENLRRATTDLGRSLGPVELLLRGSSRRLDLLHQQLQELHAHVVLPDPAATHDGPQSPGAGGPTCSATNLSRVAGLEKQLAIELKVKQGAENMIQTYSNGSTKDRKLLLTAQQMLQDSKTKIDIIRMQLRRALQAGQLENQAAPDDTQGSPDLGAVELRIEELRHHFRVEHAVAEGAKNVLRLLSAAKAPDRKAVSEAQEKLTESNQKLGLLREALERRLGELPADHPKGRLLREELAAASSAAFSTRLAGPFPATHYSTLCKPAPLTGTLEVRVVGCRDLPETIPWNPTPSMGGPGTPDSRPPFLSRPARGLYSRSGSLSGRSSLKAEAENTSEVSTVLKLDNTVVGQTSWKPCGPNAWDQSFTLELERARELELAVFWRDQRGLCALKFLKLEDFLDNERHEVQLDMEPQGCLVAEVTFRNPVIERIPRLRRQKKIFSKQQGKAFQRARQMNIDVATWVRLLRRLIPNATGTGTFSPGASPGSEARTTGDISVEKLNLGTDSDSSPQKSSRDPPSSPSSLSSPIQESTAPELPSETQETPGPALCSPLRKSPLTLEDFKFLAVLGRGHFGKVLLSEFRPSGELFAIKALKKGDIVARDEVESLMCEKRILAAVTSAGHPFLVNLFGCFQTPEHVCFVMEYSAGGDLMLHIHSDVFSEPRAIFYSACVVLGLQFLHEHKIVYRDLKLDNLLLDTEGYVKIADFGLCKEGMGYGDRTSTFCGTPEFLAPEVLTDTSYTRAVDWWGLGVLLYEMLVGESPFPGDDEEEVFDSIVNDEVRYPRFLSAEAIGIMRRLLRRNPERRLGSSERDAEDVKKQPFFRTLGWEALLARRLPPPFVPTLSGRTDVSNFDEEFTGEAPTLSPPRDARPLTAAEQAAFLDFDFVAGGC
Chain of Maternal embryonic leucine zipper kinase (Q14680 whole entry): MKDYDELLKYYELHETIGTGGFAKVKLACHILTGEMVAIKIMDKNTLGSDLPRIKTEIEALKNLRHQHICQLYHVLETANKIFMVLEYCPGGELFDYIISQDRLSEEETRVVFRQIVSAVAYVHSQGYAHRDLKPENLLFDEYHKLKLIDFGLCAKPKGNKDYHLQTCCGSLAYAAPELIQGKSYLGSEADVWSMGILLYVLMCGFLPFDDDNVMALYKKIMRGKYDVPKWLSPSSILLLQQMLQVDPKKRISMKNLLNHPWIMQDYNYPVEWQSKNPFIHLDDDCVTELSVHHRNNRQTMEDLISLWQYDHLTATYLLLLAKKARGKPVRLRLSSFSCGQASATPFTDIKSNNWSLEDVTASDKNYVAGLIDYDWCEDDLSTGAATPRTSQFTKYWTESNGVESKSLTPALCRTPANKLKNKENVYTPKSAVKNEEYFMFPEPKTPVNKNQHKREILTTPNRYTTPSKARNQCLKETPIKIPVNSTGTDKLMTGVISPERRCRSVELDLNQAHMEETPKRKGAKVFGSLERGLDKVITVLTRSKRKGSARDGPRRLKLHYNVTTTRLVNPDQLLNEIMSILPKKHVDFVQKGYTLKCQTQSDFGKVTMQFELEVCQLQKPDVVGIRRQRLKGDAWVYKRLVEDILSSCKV
Chain of STE20-like serine/threonine-protein kinase (Q9H2G2 whole entry): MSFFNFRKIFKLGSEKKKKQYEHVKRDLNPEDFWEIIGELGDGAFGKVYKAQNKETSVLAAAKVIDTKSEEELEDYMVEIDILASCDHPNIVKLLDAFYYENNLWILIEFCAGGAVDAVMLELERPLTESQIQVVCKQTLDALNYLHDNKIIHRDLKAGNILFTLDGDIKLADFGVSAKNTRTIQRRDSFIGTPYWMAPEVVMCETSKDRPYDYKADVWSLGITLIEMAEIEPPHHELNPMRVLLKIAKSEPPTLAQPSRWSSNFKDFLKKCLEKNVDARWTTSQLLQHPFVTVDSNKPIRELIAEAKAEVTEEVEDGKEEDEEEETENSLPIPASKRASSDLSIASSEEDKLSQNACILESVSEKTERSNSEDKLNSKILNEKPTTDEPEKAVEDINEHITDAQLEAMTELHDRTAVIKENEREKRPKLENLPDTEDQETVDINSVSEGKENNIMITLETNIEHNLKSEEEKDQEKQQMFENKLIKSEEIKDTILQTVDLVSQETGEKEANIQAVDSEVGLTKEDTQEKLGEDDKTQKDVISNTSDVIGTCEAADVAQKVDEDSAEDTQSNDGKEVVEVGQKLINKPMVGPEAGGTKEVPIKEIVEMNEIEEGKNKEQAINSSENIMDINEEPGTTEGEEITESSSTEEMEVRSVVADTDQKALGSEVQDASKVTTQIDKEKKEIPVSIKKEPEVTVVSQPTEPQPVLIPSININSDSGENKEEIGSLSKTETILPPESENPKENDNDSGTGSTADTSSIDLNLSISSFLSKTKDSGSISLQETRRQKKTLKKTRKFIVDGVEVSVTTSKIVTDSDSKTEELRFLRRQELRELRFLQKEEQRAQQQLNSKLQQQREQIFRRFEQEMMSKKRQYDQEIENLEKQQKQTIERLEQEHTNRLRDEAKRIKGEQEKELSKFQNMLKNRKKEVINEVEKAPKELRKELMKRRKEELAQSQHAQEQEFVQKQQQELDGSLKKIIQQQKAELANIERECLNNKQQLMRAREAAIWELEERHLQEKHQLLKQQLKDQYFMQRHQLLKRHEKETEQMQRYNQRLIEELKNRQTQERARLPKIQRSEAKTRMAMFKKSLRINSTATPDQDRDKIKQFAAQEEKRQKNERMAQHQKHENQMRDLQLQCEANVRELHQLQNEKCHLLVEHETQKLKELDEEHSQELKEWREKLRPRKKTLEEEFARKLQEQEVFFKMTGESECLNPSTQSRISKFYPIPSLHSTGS
Chain of MAP kinase-activated protein kinase 2 (P49137 whole entry): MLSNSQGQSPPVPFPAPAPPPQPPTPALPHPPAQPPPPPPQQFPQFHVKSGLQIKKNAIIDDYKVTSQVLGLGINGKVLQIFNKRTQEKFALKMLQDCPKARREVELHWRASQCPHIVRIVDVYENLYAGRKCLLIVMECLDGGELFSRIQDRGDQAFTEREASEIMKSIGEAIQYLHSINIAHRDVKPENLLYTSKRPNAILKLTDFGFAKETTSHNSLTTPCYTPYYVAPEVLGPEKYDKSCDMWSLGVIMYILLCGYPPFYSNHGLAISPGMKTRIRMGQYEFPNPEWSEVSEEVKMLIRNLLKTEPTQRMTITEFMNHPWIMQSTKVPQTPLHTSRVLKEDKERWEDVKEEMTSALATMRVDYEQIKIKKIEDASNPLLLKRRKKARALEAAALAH

Row | Kd [1] | Kd [2] | Kd [3] | Kd [4] | Kd [5] | Kd [6] | Kd [7] | Kd [8] | Kd (Ephrin type-B receptor 2) | Kd [9] | SMILES
1 | > 30 µM (inactive) | > 30 µM (inactive) | > 30 µM (inactive) | > 30 µM (inactive) | > 30 µM (inactive) | > 30 µM (inactive) | > 30 µM (inactive) | > 30 µM (inactive) | > 30 µM (inactive) | > 30 µM (inactive) | Cc1cc(Nc2ncc(Cl)c(Nc3ccccc3S(=O)(=O)C(C)C)n2)c(OC(C)C)cc1C1CCNCC1 [CERITINIB]
2 | > 30 µM (inactive) | > 30 µM (inactive) | > 30 µM (inactive) | > 30 µM (inactive) | > 30 µM (inactive) | > 30 µM (inactive) | > 30 µM (inactive) | > 30 µM (inactive) | > 30 µM (inactive) | > 30 µM (inactive) | COc1c(OCCCN2CCOCC2)ccc2c1N=C(NC(=O)c1cnc(N)nc1)N1CCN=C21 [COPANLISIB]
3 | > 30 µM (inactive) | > 30 µM (inactive) | > 30 µM (inactive) | > 30 µM (inactive) | > 30 µM (inactive) | > 30 µM (inactive) | > 30 µM (inactive) | > 30 µM (inactive) | > 30 µM (inactive) | > 30 µM (inactive) | COCC(=O)NC/C=C/c1ccc2ncnc(Nc3ccc(Oc4ccc(C)nc4)c(C)c3)c2c1 [CP-724714]
4 | 1.28 µM (active) | > 30 µM (inactive) | > 30 µM (inactive) | > 30 µM (inactive) | > 30 µM (inactive) | > 30 µM (inactive) | > 30 µM (inactive) | > 30 µM (inactive) | > 30 µM (inactive) | > 30 µM (inactive) | C#Cc1cccc(Nc2ncnc3cc(OC)c(OCCCCCCC(=O)NO)cc23)c1 [CUDC-101]
5 | > 30 µM (inactive) | > 30 µM (inactive) | > 30 µM (inactive) | > 30 µM (inactive) | > 30 µM (inactive) | > 30 µM (inactive) | > 30 µM (inactive) | 0.128 µM (active) | > 30 µM (inactive) | > 30 µM (inactive) | CCS(=O)(=O)N1CCN(c2ccc(Nc3ncc(C(N)=O)c(NC4CC4)n3)cc2)CC1 [Cerdulatinib Hydrochloride]
6 | > 30 µM (inactive) | > 30 µM (inactive) | > 30 µM (inactive) | 0.018 µM | > 30 µM (inactive) | > 30 µM (inactive) | > 30 µM (inactive) | > 30 µM (inactive) | > 30 µM (inactive) | > 30 µM (inactive) | Cc1nc2cc(-n3ncc(C(=O)c4cc5ccccc5[nH]4)c3N)ccc2[nH]1 [FGFR INHIBITOR DEBIO 1347]
7 | > 30 µM (inactive) | > 30 µM (inactive) | > 30 µM (inactive) | > 30 µM (inactive) | > 30 µM (inactive) | > 30 µM (inactive) | > 30 µM (inactive) | > 30 µM (inactive) | > 30 µM (inactive) | > 30 µM (inactive) | Cc1cccc(-c2nn3c(c2-c2ccnc4ccc(C(N)=O)cc24)CCC3)n1 [GALUNISERTIB]
8 | > 30 µM (inactive) | > 30 µM (inactive) | > 30 µM (inactive) | > 30 µM (inactive) | > 30 µM (inactive) | > 30 µM (inactive) | > 30 µM (inactive) | > 30 µM (inactive) | > 30 µM (inactive) | > 30 µM (inactive) | COc1ccc(S(=O)(=O)N(C(C)=O)c2ccccc2/C=C/c2cc[n+]([O-])cc2)cc1 [HMN-214]
9 | > 30 µM (inactive) | > 30 µM (inactive) | > 30 µM (inactive) | > 30 µM (inactive) | > 30 µM (inactive) | > 30 µM (inactive) | > 30 µM (inactive) | > 30 µM (inactive) | > 30 µM (inactive) | > 30 µM (inactive) | CNC(=O)c1cccc2cc(Oc3ccnc4cc(OCC5(N)CC5)c(OC)cc34)ccc12 [LUCITANIB]
10 | > 30 µM (inactive) | > 30 µM (inactive) | > 30 µM (inactive) | > 30 µM (inactive) | > 30 µM (inactive) | > 30 µM (inactive) | > 30 µM (inactive) | > 30 µM (inactive) | > 30 µM (inactive) | > 30 µM (inactive) | NC1(c2ccc(-c3nc4ccn5c(=O)[nH]nc5c4cc3-c3ccccc3)cc2)CCC1 [MK-2206]
11 | > 30 µM (inactive) | > 30 µM (inactive) | > 30 µM (inactive) | > 30 µM (inactive) | > 30 µM (inactive) | > 30 µM (inactive) | > 30 µM (inactive) | > 30 µM (inactive) | > 30 µM (inactive) | > 30 µM (inactive) | CN(C[C@@H]1COCCO1)S(=O)(=O)Nc1ccc2ccc3ncc(-c4cnn(C)c4)cc3c(=O)c2c1 [MK-2461]
12 | > 30 µM (inactive) | > 30 µM (inactive) | > 30 µM (inactive) | > 30 µM (inactive) | > 30 µM (inactive) | > 30 µM (inactive) | > 30 µM (inactive) | > 30 µM (inactive) | > 30 µM (inactive) | > 30 µM (inactive) | Cn1cc(-c2cnc3ccc4ccc(CS(=O)(=O)NCc5ccccn5)cc4c(=O)c3c2)cn1 [MK-8033]
13 | > 30 µM (inactive) | > 30 µM (inactive) | > 30 µM (inactive) | > 30 µM (inactive) | > 30 µM (inactive) | > 30 µM (inactive) | > 30 µM (inactive) | > 30 µM (inactive) | > 30 µM (inactive) | > 30 µM (inactive) | FC(F)(F)c1ccc(/C=C/c2nc(COc3ccc(CCCCn4ccnn4)cc3)co2)cc1 [MUBRITINIB]

Row | SMILES | Kd [1] | Kd [2] | Kd [3] | Kd [4] | Kd [5] | Kd [6] | Kd [7] | Kd [8] | Kd (Ephrin type-B receptor 2) | Kd [9]
14 | O=C(Nc1nc2cccc(-c3ccc(CN4CCS(=O)(=O)CC4)cc3)n2n1)C1CC1 [FILGOTINIB] | > 30 µM (inactive) | > 30 µM (inactive) | 9.27 µM (active) | > 30 µM (inactive) | > 30 µM (inactive) | > 30 µM (inactive) | > 30 µM (inactive) | > 30 µM (inactive) | > 30 µM (inactive) | > 30 µM (inactive)
